Experiments:
Type in all cases: cell-based
[1] = system: Cupriavidus metallidurans MSR33; experiment: Minimum inhibitory concentration (MIC) of heavy metals in agar plates, strain MSR33; conditions: for Improved resistance (fold): MIC of MSR33 relative to CH34; for MIC, strain MSR33: agar plates, Tris mineral salts medium, increasing metal concentrations
Description: (§1) The increase of the heavy metal resistance of the novel strain Cupriavidus metallidurans MSR33 was confirmed measuring minimum inhibitory concentration (MIC) of heavy metals in agar plates containing Tris mineral salts medium supplemented with increasing heavy metal concentrations and the organomercurial compound methylmercury.

[2] = system: Cupriavidus metallidurans CH34; experiment: Minimum inhibitory concentration (MIC) of heavy metals in agar plates, strain CH34; conditions: Tris mineral salts medium, increasing metal concentrations
Description: as §1

[3] = system: Cupriavidus metallidurans MSR33; experiment: Growth in Tris mineral salts medium with Hg(II) added at mid-exponential phase, strain MSR33; conditions: Hg(II) 8 μg/g added at mid-exponential phase, succinate
Procedure: (§2) To characterize the novel mercury resistance capabilities, the recombinant strain Cupriavidus metallidurans MSR33 was grown in minimal medium supplemented with succinate as sole carbon source and energy and in the presence or absence of mercury. Cupriavidus metallidurans strain CH34 was also grown in these conditions.
(§3) The growth of both strains is similar in absence of Hg (II).

[4] = system: Cupriavidus metallidurans strain CH34; experiment: Growth in Tris mineral salts medium with Hg(II) added at exponential phase, strain CH34; conditions: Hg^2+ 8 μg/g added at exponential phase, succinate
Procedure: as §2, §3

| Structure (SMILES) | Improved resistance (fold) [1] [fold] | MIC, strain MSR33 [1] [µg/g] | MIC, strain CH34 ([2]; parental strain CH34) [µg/g] | MIC, strain CH34 ([2]; parental strain CH34, listed as CH3Hg^+) | effect on growth of strain MSR33 [3] | effect on growth of strain CH34 [4] |
| --- | --- | --- | --- | --- | --- | --- |
| [Cd+2] [Cd^2+] | 1.6 | 160 | 100 |  |  |  |
| [Cu+2] [Cu^2+] |  | 240 | 240 |  |  |  |
| [CH3][Hg][Cl] [MeHg^+, methylmercury] | >18.0 | 18 | <1 | sensitive |  |  |
| [Hg+2] [Hg^2+] | 2.4 | 24 | 10 |  | do not affect the growth | no further growth |
